Measured values as given in patent US8680275B2, “Fused heterocyclic compounds as orexin receptor modulators” (Janssen Pharmaceutica NV, priority 2009, dated 2014).

What was measured:
human orexin-2 receptor = human orexin-2 receptor (Homo sapiens (Human), UniProt O43614); assay: Human orexin 2 receptor radioligand binding ([3H]-EMPA competition); settings: HEK293 cells stably expressing human orexin-2 receptor; [3H]-EMPA 5 nM final; read-out: OR-2 Ki
Description: (§1) The in vitro affinity of the compounds for the human orexin-1 and orexin-2 receptors was determined by competitive radioligand binding using [^3H]SB SB674042 (1-(5-(2-fluoro-phenyl)-2-methyl-thiazol-4-yl)-1-((S)-2-(5-phenyl-(1,3,4)oxadiazol-2-ylmethyl)-pyrrolidin-1-yl)methanone) (Langmead et al., British Journal of Pharmacology 2004, 141:340-346.) and [^3H]EMPA (N-ethyl-2[(6-methoxy-pyridin-3-yl)-(toluene-2-sulfonyl)-amino]-N-pyridin-3-ylmethyl acetamide) (Malherbe et al., British Journal of Pharmacology, 2009, 156(8), 1326-1341), respectively.
Human Orexin 2 Receptor Radioligand Binding Studies
HEK293 stably expressing human orexin-2 receptor (Genebank accession number NM_001526) were grown to confluency in DMEM/F12 (Gibco, Cat #11039), in DMEM, 10% FBS, 1× Pen/Strep, 1× NaPyruvate, 1×HEPES, 600 ug/ml G418 media on 150 cm^2 tissue culture plates, washed with 5 mM EDTA in PBS (HyClone Dulbecco's Phosphate Buffered Saline 1× with Calcium and Magnesium, Cat #SH30264.01, hereafter referred to simply as PBS) and scraped into 50 ml tubes. After centrifugation (2K xG, 10 min at 4° C.), the supernatant was aspirated and the pellets frozen and stored at −80° C. Cells were resuspended in PBS in the presence of 1 tablet of protease inhibitor cocktail (Roche, Cat. #11836145001) per 50 mL. […] Competition binding experiments in 96 well polypropylene plates were performed using [^3H]-EMPA (Moravek Corporation, specific activity=27 Ci/mmol), diluted to a […] concentration in PBS (5 nM final concentration). Compounds were solubilized in 100% DMSO (Acros Organics, Cat. #61042-1000) and tested over a range of 7 concentrations (from 0.1 nM to 10 μM). The final concentration of DMSO in the reactions is equal to or less than 0.1%. Total and nonspecific binding was determined in the absence and presence of 10 μM (N-[2-(3,4-dimethoxyphenyl)ethyl]-N-methylnaphthalene-1-carboxamide, CAS Registry #1089563-88-1). The total volume of each reaction is 200 μL (20 μL of diluted compounds, 80 μL of [^3H]-EMPA diluted in PBS and 100 μL of the cell suspension). Reactions were run for 60 min at room temperature and terminated by filtration through GF/C filter plates (PerkinElmer, Cat. #6005174) presoaked in 0.3% polyethylenimine using the cell harvester (Perkin Elmer Filtermate). The plates were washed 3 times by aspirating 30 ml PBS through the plates. Plates were dried in 55° C. oven for 60 min, scintillation fluid was added, and the radioactivity was counted on a Topcount (Packard).

human orexin 1 receptor = human orexin 1 receptor (Homo sapiens (Human), UniProt O43613); assay: Human orexin 1 receptor radioligand binding ([3H]-SB674042 competition); settings: CHO cells stably expressing human orexin 1 receptor; [3H]-SB674042 4 nM final; read-out: OR-1 Ki
Description: as §1
Human Orexin 1 Receptor Radioligand Binding Studies
Chinese ovary cells (CHO) stably expressing human orexin 1 receptor (Genebank accession number NM_001526) were grown to confluency in DMEM/F12 (Gibco, Cat #11039), 10% FBS, 1× Pen/Strep, 600 μg/mL G418 media on 150 cm^2 tissue culture plates, washed with 5 mM EDTA in PBS (HyClone Dulbecco's Phoshpate Buffered Saline 1× with Calcium and Magnesium, Cat #SH30264.01, hereafter referred to simply as PBS) and scraped into 50 ml tubes. After centrifugation (2K xG, 10 min at 4° C.), the supernatant was aspirated and the pellets frozen and stored at −80° C. Cells were resuspended in PBS in the presence of 1 tablet of protease inhibitor cocktail (Roche, Cat. #11836145001) per 50 mL. […] Compounds were solubilized in 100% DMSO (Acros Organics, Cat. #61042-1000) and tested over a range of 7 concentrations (from 0.1 nM to 10 μM). The final concentration of DMSO in the reactions is equal to or less than 0.1%. Total and nonspecific binding was determined in the absence and presence of 10 μM (1-(6,8-difluoro-2-methylquinolin-4-yl)-3-[4-(dimethylamino)phenyl]urea, CAS Registry #288150-92-5). The total volume of each reaction is 200 μL (20 μL of diluted compounds, 80 μL of [^3H]-SB674042 diluted in PBS and 100 μL of the cell suspension). Reactions were run for 60 min at room temperature and terminated by filtration through GF/C filter plates (PerkinElmer, Cat. #6005174) presoaked in 0.3% polyethylenimine using the cell harvester (PerkinElmer Filtermate). The plates were washed 3 times by aspirating 30 ml PBS through the plates. Plates were dried in 55° C. oven for 60 min, scintillation fluid was added, and the radioactivity was counted on a Topcount (Packard).

Chain of human orexin 1 receptor (O43613 whole entry): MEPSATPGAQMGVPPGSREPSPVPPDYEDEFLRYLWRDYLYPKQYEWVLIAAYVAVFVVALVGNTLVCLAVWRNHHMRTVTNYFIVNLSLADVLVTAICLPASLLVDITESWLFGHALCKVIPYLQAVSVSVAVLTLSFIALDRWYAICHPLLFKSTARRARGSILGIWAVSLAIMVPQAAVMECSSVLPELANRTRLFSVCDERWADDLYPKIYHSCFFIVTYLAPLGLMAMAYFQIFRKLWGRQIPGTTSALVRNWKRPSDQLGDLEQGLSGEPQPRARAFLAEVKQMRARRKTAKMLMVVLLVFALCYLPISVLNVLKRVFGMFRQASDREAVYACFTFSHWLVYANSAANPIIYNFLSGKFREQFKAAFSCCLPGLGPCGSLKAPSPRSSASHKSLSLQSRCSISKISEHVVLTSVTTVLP
Chain of human orexin-2 receptor (O43614 whole entry): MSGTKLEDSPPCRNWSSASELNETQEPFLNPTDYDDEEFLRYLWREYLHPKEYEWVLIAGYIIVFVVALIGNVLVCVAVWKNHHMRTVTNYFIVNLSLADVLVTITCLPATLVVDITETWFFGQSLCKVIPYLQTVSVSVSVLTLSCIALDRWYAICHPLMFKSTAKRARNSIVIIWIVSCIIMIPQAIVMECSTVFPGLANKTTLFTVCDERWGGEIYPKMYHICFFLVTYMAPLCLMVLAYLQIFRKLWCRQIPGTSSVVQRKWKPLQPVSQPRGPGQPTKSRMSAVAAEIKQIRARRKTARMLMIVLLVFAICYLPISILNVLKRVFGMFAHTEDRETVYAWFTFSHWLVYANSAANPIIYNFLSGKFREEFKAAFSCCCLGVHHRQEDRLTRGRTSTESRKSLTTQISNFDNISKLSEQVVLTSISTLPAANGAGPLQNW

SMILES | Ki (human orexin-2 receptor) [nM] | Ki (human orexin 1 receptor) [nM]
COc1cccc(OC)c1C(=O)N1CCC2CN(c3cnc4ccccc4n3)C2C1 (stereo not shown) [Example 12, (2,6-Dimethoxy-phenyl)-(8-quinoxalin-2-yl-3,8-diaza-bicyclo[4.2.0]oct-3-yl)-methanone] | 209 | 659
O=C(c1ccccc1Br)N1CC[C@H]2CN(c3cnc4ccccc4n3)[C@H]2C1 [Example 13, (1R,6S)(2-Bromo-phenyl)-(8-quinoxalin-2-yl-3,8-diaza-bicyclo[4.2.0]oct-3-yl)-methanone] | 144 | 78
O=C(c1ccccc1-c1cccnc1)N1CC[C@H]2CN(c3cnc4ccccc4n3)[C@H]2C1 [Example 14, (1R,6S)(2-Pyridin-3-yl-phenyl)-(8-quinoxalin-2-yl-3,8-diaza-bicyclo[4.2.0]oct-3-yl)-methanone] | 114 | 96
COc1cccc(OC)c1C(=O)N1CCC2CN(c3nccc(-c4ccccc4)n3)C2C1 (stereo not shown) [Example 15, (2,6-Dimethoxy-phenyl)-[8-(4-phenyl-pyrimidin-2-yl)-3,8-diaza-bicyclo[4.2.0]oct-3-yl]-methanone] | 257 | 237
COc1cccc(OC)c1C(=O)N1CCC2CN(c3nc4ccccc4o3)C2C1 (stereo not shown) [Example 16, (8-Benzooxazol-2-yl-3,8-diaza-bicyclo[4.2.0]oct-3-yl)-(2,6-dimethoxy-phenyl)-methanone] | 284 | 460
Cc1cc(C)nc(N2C[C@H]3CCN(C(=O)c4ccccc4-c4ccccc4)C[C@H]32)n1 [Example 18, (1S,6R)Biphenyl-2-yl-[8-(4,6-dimethyl-pyrimidin-2-yl)-3,8-diaza-bicyclo[4.2.0]oct-3-yl]-methanone] | 763 | 3830
Cc1ccc(C)c(S(=O)(=O)N2CCC3CN(c4nccc(-c5ccccc5)n4)C3C2)c1 (stereo not shown) [Example 19, 3-(2,5-Dimethyl-benzenesulfonyl)-8-(4-phenyl-pyrimidin-2-yl)-3,8-diaza-bicyclo[4.2.0]octane] | 1070 | 254
Cc1ccc(S(=O)(=O)N2CC[C@H]3CN(c4cnc5ccccc5n4)[C@H]3C2)c(C)c1 [Example 20, (1R,6S)2-[3-(2,4-Dimethyl-benzenesulfonyl)-3,8-diaza-bicyclo[4.2.0]oct-8-yl]-quinoxaline] | 2110 | 379
Cc1ccc(C)c(S(=O)(=O)N2CCC3CN(c4cnc5ccccc5n4)C3C2)c1 (stereo not shown) [Example 21, 2-[3-(2,5-Dimethyl-benzenesulfonyl)-3,8-diaza-bicyclo[4.2.0]oct-8-yl]-quinoxaline] | 3780 | 1210
Cc1cc(C)nc(N2C[C@@H]3CCN(C(=O)c4c(F)cccc4-c4ncccn4)C[C@@H]32)n1 [Example 22, (1R,6S)[8-(4,6-Dimethyl-pyrimidin-2-yl)-3,8-diaza-bicyclo[4.2.0]oct-3-yl]-(2-fluoro-6-pyrimidin-2-yl-phenyl)-methanone] | 29 | 473
Cc1cc(C)nc(N2C[C@@H]3CCN(C(=O)c4cc(F)ccc4-c4ncccn4)C[C@@H]32)n1 [Example 23, (1R,6S)[8-(4,6-Dimethyl-pyrimidin-2-yl)-3,8-diaza-bicyclo[4.2.0]oct-3-yl]-(5-fluoro-2-pyrimidin-2-yl-phenyl)-methanone] | 20 | 619
Cc1ccc(-n2nccn2)c(C(=O)N2CC[C@H]3CN(c4nc(C)cc(C)n4)[C@H]3C2)c1 [Example 26, (1R,6S)-[8-(4,6-Dimethyl-pyrimidin-2-yl)-3,8-diaza-bicyclo[4.2.0]oct-3-yl]-(5-methyl-2-[1,2,3]triazol-2-yl-phenyl)-methanone] | 13 | 52
Cc1ccc(-c2ncccn2)c(C(=O)N2CC[C@H]3CN(c4nc(C)cc(C)n4)[C@H]3C2)c1 [Example 27, (1R,6S)-[8-(4,6-Dimethyl-pyrimidin-2-yl)-3,8-diaza-bicyclo[4.2.0]oct-3-yl]-(5-methyl-2-pyrimidin-2-yl-phenyl)-methanone] | 28 | 143
Cc1cc(C)nc(N2C[C@@H]3CCN(C(=O)c4ccccc4-c4ncccn4)C[C@@H]32)n1 [Example 28, (1R,6S)-[8-(4,6-Dimethyl-pyrimidin-2-yl)-3,8-diaza-bicyclo[4.2.0]oct-3-yl]-(2-pyrimidin-2-yl-phenyl)-methanone] | 21 | 330
Cc1cc(C)nc(N2C[C@@H]3CCN(C(=O)c4c(F)cccc4-n4nccn4)C[C@@H]32)n1 [Example 29, (1R,6S)-[8-(4,6-Dimethyl-pyrimidin-2-yl)-3,8-diaza-bicyclo[4.2.0]oct-3-yl]-(2-fluoro-6-[1,2,3]triazol-2-yl-phenyl)-methanone] | 11 | 325
Cc1cc(C)nc(N2C[C@@H]3CCN(C(=O)c4ccc(F)cc4-n4nccn4)C[C@@H]32)n1 [Example 30, (1R,6S)-[8-(4,6-Dimethyl-pyrimidin-2-yl)-3,8-diaza-bicyclo[4.2.0]oct-3-yl]-(4-fluoro-2-[1,2,3]triazol-2-yl-phenyl)-methanone] | 13 | 978
Cc1cnc(C)c(N2C[C@@H]3CCN(C(=O)c4ccc(F)cc4-n4nccn4)C[C@@H]32)n1 [Example 31, (1R,6S)-[8-(3,6-Dimethyl-pyrazin-2-yl)-3,8-diaza-bicyclo[4.2.0]oct-3-yl]-(4-fluoro-2-[1,2,3]triazol-2-yl-phenyl)-methanone] | 81 | ≥ 10000
Cc1cc(N2C[C@@H]3CCN(C(=O)c4c(F)cccc4-n4nccn4)C[C@@H]32)nc(C(F)(F)F)n1 [Example 32, (1R,6S)-(2-Fluoro-6-[1,2,3]triazol-2-yl-phenyl)-[8-(6-methyl-2-trifluoromethyl-pyrimidin-4-yl)-3,8-diaza-bicyclo[4.2.0]oct-3-yl]-methanone] | 13 | 134
Cc1cc(N2C[C@@H]3CCN(C(=O)c4ccc(F)cc4-n4nccn4)C[C@@H]32)nc(C(F)(F)F)n1 [Example 34, (1R,6S)-(4-Fluoro-2-[1,2,3]triazol-2-yl-phenyl)-[8-(6-methyl-2-trifluoromethyl-pyrimidin-4-yl)-3,8-diaza-bicyclo[4.2.0]oct-3-yl]-methanone] | 50 | 1040
Cc1cc(N2C[C@@H]3CCN(C(=O)c4ccccc4-n4nccn4)C[C@@H]32)nc(C(F)(F)F)n1 [Example 35, (1R,6S)-[8-(6-Methyl-2-trifluoromethyl-pyrimidin-4-yl)-3,8-diaza-bicyclo[4.2.0]oct-3-yl]-(2-[1,2,3]triazol-2-yl-phenyl)-methanone] | 24 | 117
